# Literature values as cited in patent US8530504B2, “Pyrazolothiazole compound” (Eisai R&D Management Co., Ltd., priority 2009, dated 2013).
# Key:
# rats [1] = settings: cited from earlier work
# rats [2] = settings: cited from earlier work; remark: listed apart in the source
# rats [3] = settings: cited from earlier work; remark: listed apart in the source
# [4] = pretreatment; cited from earlier work
# [5] = in vivo; cited from earlier work
# [6] = in vivo; cited from earlier work; remark: listed apart in the source
compound,measurement,setting,value
CCCCN(CC)c1nc(C)nc2c1c(C)cn2-c1c(C)cc(C)cc1C [CP-154526],anti-depressant and anti-anxiety actions,rats [1],exhibits anti-depressant and anti-anxiety actions
same,recurrence of stress-elicited alcohol-seeking behavior,rats [2],inhibits recurrence of stress-elicited alcohol-seeking behavior
same,"recurrence of stress-elicited drug (heroin, cocaine)-seeking behavior",rats [3],"inhibits recurrence of stress-elicited drug (heroin, cocaine)-seeking behavior"
same,naltrexone-induced morphine withdrawal symptoms,[4],inhibits naltrexone-induced morphine withdrawal symptoms
same,gastric emptying retardation after surgery,[5],recovers gastric emptying retardation after surgery
same,learning disability following acute stress,[6],inhibits learning disability following acute stress
